# Measurements published in patent US7517654B2, “Peptide and a derivative thereof promoting cell adhesion and spreading” (Seoul National University Industry Foundation, priority 2004, dated 2009).
# Columns and labels:
# Type in all cases: cell-based, human
# HOK-16B cells [1] = experiment: Cell spreading activity assay on coated plates; settings: HOK-16B cells, 10 μg/well truncated or Ala-substituted peptide coating, 1 h
# Procedure: To identify spreading cells, attached cells were fixed with 10% formalin in PBS for 15 min, rinsed twice with PBS, and stained with 0.005% crystal violet for 1 h. The plates were then gently rinsed with DDW. To ensure a representative count, each plate was divided into quarters, two fields per quarter were photographed using an Olympus BX51 microscope at 100× magnification. Cells that had adopted a flattened, polygonal shape, with filopodia-and lamellipodia-like extensions were considered to be spreading cells. In contrast, cells that resisted being washed and remained tethered to the plate surface were considered to be non-spreading cells.
# To examine the adhesion activity of peptide P4 in detail, the inventors examined whether the adherent cells were tethered to the substratum or spread over the substratum. The BSA and rLG3 were used as the negative control and positive control, respectively, the percentage of cells displaying a spreading morphology was quantified by dividing the number of spreading cells by the total number of bound cells.
# HOK-16B cells [2] = experiment: Cell adhesion assay on coated plates (crystal violet absorbance at 570 nm / cell counting); settings: HOK-16B cells, 10 μg/well truncated or Ala-substituted peptide coating, 1 h
# Procedure: The cell adhesion assay was performed according to a method reported by Okazaki et al. (J. Biol. Chem., 277:37070, 2002). In detail, 24-well culture plates (Nunc, Roskilde, Denmark) were coated with various amounts of rLG proteins at 4° C. overnight. The peptides were also coated on plates by drying overnight. The substrate-coated on the plates were blocked by adding 1% heat-inactivated bovine serum albumin (BSA) in PBS for 1 h at 37° C. and washed twice with PBS. The cells in the Experimental Example 1, detached by 0.05% tyrpsin and 0.53 mM EDTA in PBS and resuspended in culture media, were added (1×10^5 cells/500 μl) to each plate and incubated for 1 h at 37° C. After incubation, unattached cells were removed by rinsing twice with PBS. The attached cells were fixed with 10% formalin in PBS for 15 min, rinsed twice with PBS, and stained with 0.5% crystal violet for 1 h. The plates were gently rinsed with DDW three times and lysed with 2% SDS for 5 min. Absorbance was measured at 570 nm in a Bio-Rad Model 550 microplate reader (BioRad).
# The cell adhesion and spreading activities on peptide-coated plates were examined using HOK-16B cells by the same method as Experimental Example 2. 24-well plates were coated with 10, 20, 30, 40 and 50 μg/well peptides P1 to P5, respectively. HOK-16B cells were added to peptide-coated plates and cultured for 1 h in serum-free medium for 1 hr. After the unbound cells were washed off, adherent cells were fixed and stained with crystal violet, and then the stained cells were analyzed. Absorbance was measured at 570 nm in a microplate reader. BSA and the rLG3 were used as negative control and positive control, respectively.
# It was observed that peptide P4 promotes strong cell adhesion and spreading activities and binds to integrin α3β1 in the Example 4. Therefore, to determine the biologically active core sequences in peptide P4, five synthetic peptides (P4 D-I to P4 D-V), which are C-terminal truncated peptides from the peptide P4, and six synthetic peptides (P4 D-N1 to P4 D-N6), which are N-terminal truncated peptides from the peptide P4 were prepared (FIG. 6A) and examined for HOK-16B cell adhesion and spreading activities on peptide-coated plates by the present inventors. 24-well plates were coated with 10 μg/well C-terminal truncated peptides or N-terminal truncated peptides, and HOK-16B cells were added to the plates, and then cultured in serum-free medium for 1 hr. After the unbound cells were washed off, the adherent cells were fixed to stain with crystal violet, and the stained cells were analyzed. Absorbance was measured at 570 nm in a microplate reader. Peptide P4 and BSA were used as the positive and negative controls, respectively.
# 24-well plates were coated with 10 μg/well peptides, and HOK-16B cells were added to the plates, and then cultured in serum-free medium for 1 hr. After the unbound cells were washed off, the adherent cells were fixed to stain with crystal violet, and the stained cells were analyzed. Peptide P4 and BSA were used as the positive and negative controls, respectively. The results were expressed as mean ±SD of the four independent experiments.
# FAK = FAK phosphorylation assay (immunoblot, p-FAK/t-FAK); settings: for FAK phosphorylation level at Tyr-397: peptides 50 μg/60-mm dish
# Procedure: The FAK phosphorylation assays were performed according to a method of Shang et al. (J. Biol. Chem., 276:33045, 2001). In detail, the HOK-16B cells were trypsinized, washed, and kept in suspension in serum-free KGM with 0.1% BSA for 1 h at 37° C. The 60-mm culture dishes were coated with laminin (5 μg/ml) or rLG3 protein (25 μg/ml) at 4° C. overnight. Peptides (50 μg/60-mm culture dish) were also coated on dishes by drying overnight. For the adherent FAK assay, 1×10^6 cells were plated onto uncoated, laminin-coated, rLG3 protein-coated, or various peptide-coated dishes and allowed to attach for 15, 30, or 60 min at 37° C. in an atmosphere of 5% CO2. At the end of the incubation, cells were washed with ice-cold PBS and lysed in RIPA buffer (50 mM Tris [pH 7.4], 150 mM NaCl, 1% Nonidet P-40, 0.5% Na-deoxycholate, 1 mM EDTA, 0.1% SDS, 2 mM Na3VO4, 1 mM glycerol phosphate, 1 mM PMSF, and protease inhibitor cocktail). Lysates were clarified by centrifugation at 12,000×g for 10 min at 4° C. to isolate cytosolic extracts.
# The cytosolic extracts were denatured using SDS sample buffer [50 mM Tris-HCl (pH 6.8), 2% SDS, 10% glycerol, 0.1% bromophenol blue, 100 mM β-mercaptoethanol] and separated on an 8% SDS-polyacrylamide gel. Electrophoretic transfer of SDS-PAGE gel separated with protein to a nitrocellulose membrane was followed by immnoblotting with polyclonal anti-FAK antibodies to determine the total FAK level or immnoblotting with polyclonal anti-FAK [pY^397], [pY^407], [pY^576], [pY^577] or [pY^861] antibodies to determine the extent of tyrosine phosphorylation. The relative fold induction of FAK phosphorylation, defined as an increase in FAK phosphorylation of a sample relative to its corresponding background level (i.e., cells plated on plastic) was determined as follows: First, the densitomerty intensity of the phosphorylated FAK (p-FAK) and the total FAK (t-FAK) signals from the Western blots were measured with a LAS-1000plus (Fuji photo film, Japan). The ratio of p-FAK to t-FAK (p-FAK/t-FAK) for each sample was then calculated to correct for differences in protein loading. This ratio was normalized to the p-FAK/t-FAK ratio of the negative controls to obtain the relative fold induction of FAK phosphorylation.
# HOK-16B cells isolated by trypsinization were suspended for 1 hr, and kept in suspension (Sus), or replated on 60-mm culture dishes coated with or without laminin (5 μg/ml). The cells were kept for 15, 30, or 60 min for being attached on plates, then cell lysates were analyzed by immunoblot analysis with anti-FAK p-Y397 antibody (Biosource, Camariollo, Calif.). […] This effect was observed within 15 min and peaked at 15 min after exposure to the laminin-coated plate (FIG. 8A).
# Therefore, the extent of FAK phosphorylation at Tyr-397,-407,-576, -577, and -861 was investigated in HOK-16B cells cultured on plates coated with laminin (5 μg/ml), rLG3 (25 μg/ml), or peptides P1-P5 (50 μg/60-mm dish) for 15 min. The lysates were immnoblotted with polyclonal anti-FAK, p-Y397, p-Y407, p-Y576, p-Y577 or p-Y861 antibodies (Biosoucce, Camariollo, Calif.), and the total FAK level was detected using anti-FAK antibodies (Upstate Biotechnology, Lake Placid, N.Y. The ratio of p-FAK to t-FAK (p-FAK/t-FAK) for each sample was then calculated to correct for differences in protein loading. This ratio was normalized to the p-FAK/t-FAK ratio of the negative controls (cells on plates) to obtain the relative fold induction of FAK phosphorylation. As a result, the extent of FAK phosphorylation at Tyr-397 cultured on the laminin-coated or rLG3 protein-coated plates increased 16.2- and 8.2-fold compared with the untreated control (FIG. 8B).
# [3] = HOK-16B cells on coated dishes, laminin 5 μg/ml
substance,measurement,setting,value
P4-S2: peptide P4 in which Ala substituted for Arg (PPFLMLLKGSTA),cell spreading activity compared to the peptide P4 control,HOK-16B cells [1],significantly inhibited
same,cell adhesion activity compared to the peptide P4 control,HOK-16B cells [2],significantly inhibited
same,FAK phosphorylation level at Tyr-397,FAK; [3],significantly decreased
P4-S3: peptide P4 in which Ala substituted for both Lys and Arg (PPFLMLLAGSTA),cell spreading activity compared to the peptide P4 control,HOK-16B cells [1],significantly inhibited
same,cell adhesion activity compared to the peptide P4 control,HOK-16B cells [2],significantly inhibited
same,FAK phosphorylation level at Tyr-397,FAK; [3],significantly decreased
laminin [reference compound],"changes of the FAK phosphorylation levels at Tyr-407, -576 and -861","FAK; HOK-16B cells on coated dishes, 15 min",not observed
same,FAK phosphorylation level at Tyr-397,FAK; [3],notably higher
same,increase of FAK phosphorylation at Tyr-397 compared with the untreated control,"FAK; HOK-16B cells, 15 min, laminin 5 μg/ml or rLG3 25 μg/ml coating, p-FAK/t-FAK normalized",16.2 fold
same,time of peak FAK phosphorylation at Tyr-397 after exposure to coated plate,"FAK; laminin 5 μg/ml, 15, 30 or 60 min tested",15 min
